What was measured:
GTL-16 cells = assay: GTL-16 gastric carcinoma proliferation assay (MTS); format: cell-based; settings: Homo sapiens, 72 h, 0.5% fetal calf serum
Procedure: Inhibition of GTL-16 cell growth was assessed by a MTS assay using a CELLTITER 96® Aqueous Non-Radioactive Proliferation Assay kit from Promega. The kit is composed of solutions of a novel tetrazolium compound (3-(4,5-dimethylthiazol-2-yl)-5-(3-carboxymethoxyphenyl)-2-(4-sulfophenyl)-2H-tetrazolium, inner salt; MTS) and an electron coupling reagent (phenazine methosulfate, PMS). In this colormetric assay, the conversion of MTS into aqueous, soluble formazan is accomplished by dehydrogenase enzymes found in metabolically active cells. The quantity of formazan product as measured by its absorbance at 490 nm is directly proportional to the number of living cells in culture.
GTL-16 cells were inoculated into 96 well microtiter plates in 0.5% fetal calf serum and incubated at 37° C., 5% CO2, 95% air and 100% relative humidity for 24 h prior to addition of a compound. At the time of drug treatment, one plate of the cell line was processed using the above kit to represent a measurement of the cell population at the time of drug addition. Following drug treatment, the plates were incubated for an additional 72 h before processing, and measuring cell populations. Each compound was tested at 8 different concentrations in triplicate, as was the untreated control sample. Growth inhibition of 50% (IC50) is calculated by analysis of the data in Excel that uses a 4 parameter logistic equation with data fitted using the Levenburg Marquardt algorithm

GST-Met kinase = target: T1, GST-Met kinase (Homo sapiens, UniProt P08581); assay: Met kinase assay; format: biochemical
T1 construct: made in house
T1 sequence (P08581 25-1390): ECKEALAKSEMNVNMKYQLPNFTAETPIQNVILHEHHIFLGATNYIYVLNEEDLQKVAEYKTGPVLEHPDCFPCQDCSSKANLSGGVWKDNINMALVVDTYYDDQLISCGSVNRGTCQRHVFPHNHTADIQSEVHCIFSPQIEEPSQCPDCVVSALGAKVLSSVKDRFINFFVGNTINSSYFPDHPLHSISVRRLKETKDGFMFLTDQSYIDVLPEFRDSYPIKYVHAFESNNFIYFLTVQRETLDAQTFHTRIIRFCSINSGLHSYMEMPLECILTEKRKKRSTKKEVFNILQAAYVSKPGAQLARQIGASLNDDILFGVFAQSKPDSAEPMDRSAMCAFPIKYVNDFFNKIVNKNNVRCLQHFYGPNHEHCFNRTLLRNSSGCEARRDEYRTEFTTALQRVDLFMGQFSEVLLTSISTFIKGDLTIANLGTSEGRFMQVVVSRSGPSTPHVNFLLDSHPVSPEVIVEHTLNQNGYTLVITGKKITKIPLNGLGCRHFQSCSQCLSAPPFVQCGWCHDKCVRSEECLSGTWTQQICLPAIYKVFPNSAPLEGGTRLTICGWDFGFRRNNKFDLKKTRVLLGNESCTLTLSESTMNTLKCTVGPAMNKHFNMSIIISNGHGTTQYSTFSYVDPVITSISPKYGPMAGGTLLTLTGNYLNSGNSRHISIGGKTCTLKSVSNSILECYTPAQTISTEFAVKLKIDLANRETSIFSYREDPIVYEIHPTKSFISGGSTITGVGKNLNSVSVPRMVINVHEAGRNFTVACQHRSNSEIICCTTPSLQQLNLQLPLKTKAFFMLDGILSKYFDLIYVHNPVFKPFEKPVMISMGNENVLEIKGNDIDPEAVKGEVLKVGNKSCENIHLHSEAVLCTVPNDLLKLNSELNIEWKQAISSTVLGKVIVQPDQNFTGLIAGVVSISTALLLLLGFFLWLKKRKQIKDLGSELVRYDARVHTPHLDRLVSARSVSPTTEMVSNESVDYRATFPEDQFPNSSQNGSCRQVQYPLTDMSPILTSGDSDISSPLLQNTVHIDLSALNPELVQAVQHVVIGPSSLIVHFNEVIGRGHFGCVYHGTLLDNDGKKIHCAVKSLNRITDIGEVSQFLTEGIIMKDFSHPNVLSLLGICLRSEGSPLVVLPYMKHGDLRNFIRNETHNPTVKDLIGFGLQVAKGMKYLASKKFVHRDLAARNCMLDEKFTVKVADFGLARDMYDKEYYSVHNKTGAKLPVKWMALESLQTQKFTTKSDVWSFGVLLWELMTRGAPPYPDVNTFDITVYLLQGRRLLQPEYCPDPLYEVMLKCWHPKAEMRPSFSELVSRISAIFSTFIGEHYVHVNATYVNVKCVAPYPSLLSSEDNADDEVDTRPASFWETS
Procedure: Incubation mixtures employed for the Met kinase assay contain a baculovirus expressed GST-Met kinase, the synthetic substrate polyGlu:Tyr, (4:1), ATP, ATP-γ-^33P and buffer containing Mn^+2, DTT, BSA, and Tris. Reactions were incubated for 60 minutes at 30° C. and stopped by the addition of cold trichloroacetic acid (TCA) to a final concentration 8%. TCA precipitates were collected onto GF/C UniFilter plates (Packard Instrument Co., Meriden, Conn.) using a FILTERMATE® universal harvester (Packard Instrument Co., Meriden, Conn.) and the filters are quantitated using a TopCount 96/384-well liquid scintillation counter (Packard Instrument Co., Meriden, Conn.). Dose response curves were generated to determine the concentration required to inhibit 50% of kinase activity (IC50). Compounds were dissolved at 10 mM in dimethyl sulfoxide (DMSO) and evaluated at ten concentrations, each in duplicate. The final concentration of DMSO in the assay is 1.7%. IC50 values were derived by non-linear regression.

VEGFR-2 = VEGFR-2 (Homo sapiens, UniProt P35968); assay: VEGFR-2 kinase assay; format: biochemical
Chain of VEGFR-2 (P35968 20-1356): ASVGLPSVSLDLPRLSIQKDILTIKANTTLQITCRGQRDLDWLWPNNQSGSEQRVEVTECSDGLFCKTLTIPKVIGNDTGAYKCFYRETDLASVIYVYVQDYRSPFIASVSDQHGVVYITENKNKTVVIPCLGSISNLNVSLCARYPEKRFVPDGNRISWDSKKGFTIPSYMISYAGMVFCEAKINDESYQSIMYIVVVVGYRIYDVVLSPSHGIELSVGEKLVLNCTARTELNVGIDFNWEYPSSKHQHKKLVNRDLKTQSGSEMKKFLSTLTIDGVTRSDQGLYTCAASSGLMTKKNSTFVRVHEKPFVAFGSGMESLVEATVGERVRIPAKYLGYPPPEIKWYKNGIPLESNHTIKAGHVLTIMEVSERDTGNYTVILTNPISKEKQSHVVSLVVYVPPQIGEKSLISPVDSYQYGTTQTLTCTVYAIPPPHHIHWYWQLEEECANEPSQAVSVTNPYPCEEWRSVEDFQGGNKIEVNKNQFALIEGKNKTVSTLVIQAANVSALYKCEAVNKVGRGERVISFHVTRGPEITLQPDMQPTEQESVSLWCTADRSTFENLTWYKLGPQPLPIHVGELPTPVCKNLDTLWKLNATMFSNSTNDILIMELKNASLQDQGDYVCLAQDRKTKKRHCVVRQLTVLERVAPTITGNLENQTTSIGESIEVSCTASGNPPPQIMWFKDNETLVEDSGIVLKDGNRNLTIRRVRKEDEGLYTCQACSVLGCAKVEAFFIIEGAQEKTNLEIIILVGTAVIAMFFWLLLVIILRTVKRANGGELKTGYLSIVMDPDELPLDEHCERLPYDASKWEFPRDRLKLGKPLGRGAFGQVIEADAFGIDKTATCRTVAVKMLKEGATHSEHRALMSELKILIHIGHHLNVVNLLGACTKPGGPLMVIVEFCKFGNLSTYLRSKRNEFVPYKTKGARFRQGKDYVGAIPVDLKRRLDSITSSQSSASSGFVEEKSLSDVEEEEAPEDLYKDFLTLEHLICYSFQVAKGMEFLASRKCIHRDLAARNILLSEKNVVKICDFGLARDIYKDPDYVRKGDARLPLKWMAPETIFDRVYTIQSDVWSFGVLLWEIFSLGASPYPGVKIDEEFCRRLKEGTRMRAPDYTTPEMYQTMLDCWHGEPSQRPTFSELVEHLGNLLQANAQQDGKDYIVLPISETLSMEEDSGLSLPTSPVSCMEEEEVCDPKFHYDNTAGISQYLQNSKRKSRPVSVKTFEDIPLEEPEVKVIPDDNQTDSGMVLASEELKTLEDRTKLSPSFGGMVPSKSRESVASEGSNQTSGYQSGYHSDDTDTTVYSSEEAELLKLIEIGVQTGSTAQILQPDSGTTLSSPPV
Procedure: Incubation mixtures employed for the VEGFR-2 assay contain the synthetic substrate poly glu/tyr, (4:1), ATP, ATP-γ-^33P and buffer containing Mn^+2, DTT, BSA, and Tris buffer. The reaction is initiated by addition of enzyme and after 60 minutes at room temperature is terminated by the addition of 30% TCA to a final concentration of 15% TCA. Inhibitors are brought to 10 mM in 100% DMSO. Assays are prepared in a 96 well format in quadruplicate. Compounds are diluted 1:500 in 100% DMSO and then 1:10 in water for a final DMSO concentration of 10%. Aliquots (10 μL) are added to rows B-H in a 96 well format of 10% DMSO. The compound (20 μl) is added to row A at a concentration 5 fold higher than running conditions. Aliquots (10 μL) are transferred to each row followed by six serial dilutions with mixing, and at row F 10 μL are discarded. Row G is a control with no compound and row H is no compound and no enzyme control. Enzyme and substrate are delivered using a Tomtec Quadra station.
Plates are covered with sticky plate tops, incubated at 27° C. for 60 minutes, and then acid precipitated with TCA for 20 minutes on ice. […] Activity is determined by quantitating the incorporated radioactivity using a Packard TopCount Microplate Scintillation Counter following the addition of Microscint-20 cocktail into each dried well of the UniFilter microplates.

[1] = test system: GTL-16 gastric carcinoma xenografts; assay: In vivo efficacy, GTL-16 human gastric tumor xenograft model; settings: for overt toxicity: administered once daily for 14 days, any of the dose levels
Procedure: N-(4-(2-Amino-3-chloropyridin-4-yloxy)-3-fluorophenyl)-5-(4-fluorophenyl)-4-oxo-1,4-dihydropyridine-3-carboxamide (Example 1) and (3-(4-(2-amino-3-chloropyridin-4-yloxy)-3-fluorophenylcarbamoyl)-5-(4-fluorophenyl)-4-oxopyridin-1(4H)-yl)methyl dihydrogen phosphate (Example 2) were evaluated for in vivo efficacy against the GTL-16 human gastric tumor xenograft model. Example 2 is a prodrug of Example 1.

[2] = test system: U87 glioblastoma xenografts; assay: In vivo efficacy, U87 glioblastoma xenograft model; settings: 25 mg/kg, dosed orally once daily for 14 days
Procedure: Example 1 was also tested in the U87 glioblastoma model, a Met driven tumor based on an HGF autocrine mechanism of Met activation.

Structure (SMILES)	IC50 (GTL-16 cells) [nM]	IC50 (GST-Met kinase) [nM]	IC50 (VEGFR-2) [nM]	antitumor activity (tumor stasis) ([1]; 25 mg/kg of Example 1, once daily for 14 days)	overt toxicity [1]	antitumor activity (tumor stasis) [2]	antitumor activity (tumor stasis) ([1]; 31.2 mg/kg of Example 2 (equimolar to 25 mg/kg Example 1), once daily for 14 days)
Nc1cc(Oc2ccc(NC(=O)c3c[nH]cc(Cc4ccccc4)c3=O)cc2F)ccn1 [Compound A, N-(4-(2-Aminopyridin-4-yloxy)-3-fluorophenyl)-5-benzyl-4-oxo-1,4-dihydropyridine-3-carboxamide]	5400	160					
Nc1cc(Oc2ccc(NC(=O)c3cccn(-c4ccc(F)cc4)c3=O)cc2F)ccn1 [Compound B, N-(4-(2-Aminopyridin-4-yloxy)-3-fluorophenyl)-1-(4-fluorophenyl)-2-oxo-1,2-dihydropyridine-3-carboxamide]	170	4.8	40				
Nc1nccc(Oc2ccc(NC(=O)c3c[nH]cc(-c4ccc(F)cc4)c3=O)cc2F)c1Cl [Example 1, N-(4-(2-Amino-3-chloropyridin-4-yloxy)-3-fluorophenyl)-5-(4-fluorophenyl)-4-oxo-1,4-dihydropyridine-3-carboxamide]	39	1.7	15	complete tumor stasis	No overt toxicity	complete tumor stasis	
Nc1nccc(Oc2ccc(NC(=O)c3cn(COP(=O)(O)O)cc(-c4ccc(F)cc4)c3=O)cc2F)c1Cl [Example 2, (3-(4-(2-Amino-3-chloropyridin-4-yloxy)-3-fluorophenylcarbamoyl)-5-(4-fluorophenyl)-4-oxopyridin-1(4H)-yl)methyl dihydrogen phosphate]					No overt toxicity		complete tumor stasis

From patent US8258118B2, “4-pyridinone compounds and their use for cancer” (Bristol-Myers Squibb Company, priority 2008, dated 2012)
